US12110295B2, “WD40 repeat domain protein 5 (WDR5) degradation/disruption compounds and methods of use” (Icahn School of Medicine at Mount Sinai, priority 2018, dated 2024)

Target: WDR5 (Homo sapiens, UniProt P61964)
Assay: Screening of putative WDR5 degraders by Western blot in MV4;11 and/or MIAPACA2 cells
Assay type: cell-based
Design: After WDR5 degrader treatment, cells were collected and lysed; endogenous in cells; host or cells: MV4;11 and/or MIAPACA2
Details: summary of screening, FIGS. 6-10
Summary of the method: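 MV4;11 (1×10^6/well) or MIAPACA2 (1×10^5/well) cells treated 18 h with compound at paired doses between 0.1 and 10 μM, DMSO as control. Total lysates immunoblotted for WDR5 with vinculin, tubulin or GAPDH loading controls; fluorescent secondary detection.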

Compound | effective degradation of WDR5 in MV4;11 and/or MIAPACA2 cells
Cc1ncsc1-c1ccc(CNC(=O)[C@@H]2C[C@@H](O)CN2C(=O)[C@@H](NC(=O)CCCCC(=O)N2CCN(c3ncc(-c4cc(NC(=O)c5ccc(F)cc5C(F)(F)F)c(N5C[C@@H](C)N(C)[C@@H](C)C5)cc4F)cn3)CC2)C(C)(C)C)cc1 [XF078-110, (2S,4R)-1-((S)-2-(6-(4-(5-(2-fluoro-5-(4-fluoro-2-(trifluoromethyl)benzamido)-4-((3S,5R)-3,4,5-trimethylpiperazin-1-yl)phenyl)pyrimidin-2-yl)piperazin-1-yl)-6-oxohexanamido)-3,3-dimethylbutanoyl)-4-hydroxy-N-(4-(4-methylthiazol-5-yl)benzyl)pyrrolidine-2-carboxamide] | able to effectively degrade WDR5
Cc1ncsc1-c1ccc(CNC(=O)[C@@H]2C[C@@H](O)CN2C(=O)[C@@H](NC(=O)CCCCCC(=O)N2CCN(c3ncc(-c4cc(NC(=O)c5ccc(F)cc5C(F)(F)F)c(N5C[C@@H](C)N(C)[C@@H](C)C5)cc4F)cn3)CC2)C(C)(C)C)cc1 [XF078-111, (2S,4R)-1-((S)-2-(7-(4-(5-(2-fluoro-5-(4-fluoro-2-(trifluoromethyl)benzamido)-4-((3S,5R)-3,4,5-trimethylpiperazin-1-yl)phenyl)pyrimidin-2-yl)piperazin-1-yl)-7-oxoheptanamido)-3,3-dimethylbutanoyl)-4-hydroxy-N-(4-(4-methylthiazol-5-yl)benzyl)pyrrolidine-2-carboxamide] | able to effectively degrade WDR5
Cc1ncsc1-c1ccc(CNC(=O)[C@@H]2C[C@@H](O)CN2C(=O)[C@@H](NC(=O)CCCCCCC(=O)N2CCN(c3ncc(-c4cc(NC(=O)c5ccc(F)cc5C(F)(F)F)c(N5C[C@@H](C)N(C)[C@@H](C)C5)cc4F)cn3)CC2)C(C)(C)C)cc1 [XF078-112, (2S,4R)-1-((S)-2-(8-(4-(5-(2-fluoro-5-(4-fluoro-2-(trifluoromethyl)benzamido)-4-((3S,5R)-3,4,5-trimethylpiperazin-1-yl)phenyl)pyrimidin-2-yl)piperazin-1-yl)-8-oxooctanamido)-3,3-dimethylbutanoyl)-4-hydroxy-N-(4-(4-methylthiazol-5-yl)benzyl)pyrrolidine-2-carboxamide] | able to effectively degrade WDR5
Cc1ncsc1-c1ccc(CNC(=O)[C@@H]2C[C@@H](O)CN2C(=O)[C@@H](NC(=O)CCCCCCCC(=O)N2CCN(c3ncc(-c4cc(NC(=O)c5ccc(F)cc5C(F)(F)F)c(N5C[C@@H](C)N(C)[C@@H](C)C5)cc4F)cn3)CC2)C(C)(C)C)cc1 [XF078-113, (2S,4R)-1-((S)-2-(9-(4-(5-(2-fluoro-5-(4-fluoro-2-(trifluoromethyl)benzamido)-4-((3S,5R)-3,4,5-trimethylpiperazin-1-yl)phenyl)pyrimidin-2-yl)piperazin-1-yl)-9-oxononanamido)-3,3-dimethylbutanoyl)-4-hydroxy-N-(4-(4-methylthiazol-5-yl)benzyl)pyrrolidine-2-carboxamide] | able to effectively degrade WDR5
Cc1ncsc1-c1ccc(CNC(=O)[C@@H]2C[C@@H](O)CN2C(=O)[C@@H](NC(=O)CCCCCCCCC(=O)N2CCN(c3ncc(-c4cc(NC(=O)c5ccc(F)cc5C(F)(F)F)c(N5C[C@@H](C)N(C)[C@@H](C)C5)cc4F)cn3)CC2)C(C)(C)C)cc1 [XF078-114, (2S,4R)-1-((S)-2-(10-(4-(5-(2-fluoro-5-(4-fluoro-2-(trifluoromethyl)benzamido)-4-((3S,5R)-3,4,5-trimethylpiperazin-1-yl)phenyl)pyrimidin-2-yl)piperazin-1-yl)-10-oxodecanamido)-3,3-dimethylbutanoyl)-4-hydroxy-N-(4-(4-methylthiazol-5-yl)benzyl)pyrrolidine-2-carboxamide] | able to effectively degrade WDR5
Cc1ncsc1-c1ccc(CNC(=O)[C@@H]2C[C@@H](O)CN2C(=O)[C@@H](NC(=O)CCCCCCCCCC(=O)N2CCN(c3ncc(-c4cc(NC(=O)c5ccc(F)cc5C(F)(F)F)c(N5C[C@@H](C)N(C)[C@@H](C)C5)cc4F)cn3)CC2)C(C)(C)C)cc1 [XF078-115, (2S,4R)-1-((S)-2-(11-(4-(5-(2-fluoro-5-(4-fluoro-2-(trifluoromethyl)benzamido)-4-((3S,5R)-3,4,5-trimethylpiperazin-1-yl)phenyl)pyrimidin-2-yl)piperazin-1-yl)-11-oxoundecanamido)-3,3-dimethylbutanoyl)-4-hydroxy-N-(4-(4-methylthiazol-5-yl)benzyl)pyrrolidine-2-carboxamide] | able to effectively degrade WDR5
C[C@@H]1CN(c2cc(F)c(-c3cnc(N4CCN(C(=O)CCCCCCNc5cccc6c5C(=O)N(C5CCC(=O)NC5=O)C6=O)CC4)nc3)cc2NC(=O)c2ccc(F)cc2C(F)(F)F)C[C@H](C)N1C (stereo partly drawn) [XF078-121, N-(5-(2-(4-(7-((2-(2,6-dioxopiperidin-3-yl)-1,3-dioxoisoindolin-4-yl)amino)heptanoyl)piperazin-1-yl)pyrimidin-5-yl)-4-fluoro-2-((3S,5R)-3,4,5-trimethylpiperazin-1-yl)phenyl)-4-fluoro-2-(trifluoromethyl)benzamide] | able to effectively degrade WDR5
C[C@@H]1CN(c2cc(F)c(-c3cnc(N4CCN(C(=O)CCOCCOCCOCCNc5cccc6c5C(=O)N(C5CCC(=O)NC5=O)C6=O)CC4)nc3)cc2NC(=O)c2ccc(F)cc2C(F)(F)F)C[C@H](C)N1C (stereo partly drawn) [XF078-125, N-(5-(2-(4-(3-(2-(2-(2-((2-(2,6-dioxopiperidin-3-yl)-1,3-dioxoisoindolin-4-yl)amino)ethoxy)ethoxy)ethoxy)propanoyl)piperazin-1-yl)pyrimidin-5-yl)-4-fluoro-2-((3S,5R)-3,4,5-trimethylpiperazin-1-yl)phenyl)-4-fluoro-2-(trifluoromethyl)benzamide] | able to effectively degrade WDR5
C[C@@H]1CN(c2cc(F)c(-c3cnc(N4CCN(C(=O)CCOCCOCCOCCOCCNc5cccc6c5C(=O)N(C5CCC(=O)NC5=O)C6=O)CC4)nc3)cc2NC(=O)c2ccc(F)cc2C(F)(F)F)C[C@H](C)N1C (stereo partly drawn) [XF078-126, N-(5-(2-(4-(1-((2-(2,6-dioxopiperidin-3-yl)-1,3-dioxoisoindolin-4-yl)amino)-3,6,9,12-tetraoxapentadecan-15-oyl)piperazin-1-yl)pyrimidin-5-yl)-4-fluoro-2-((3S,5R)-3,4,5-trimethylpiperazin-1-yl)phenyl)-4-fluoro-2-(trifluoromethyl)benzamide] | able to effectively degrade WDR5
C[C@@H]1CN(c2cc(F)c(-c3cnc(N4CCN(C(=O)CCOCCOCCOCCOCCOCCNc5cccc6c5C(=O)N(C5CCC(=O)NC5=O)C6=O)CC4)nc3)cc2NC(=O)c2ccc(F)cc2C(F)(F)F)C[C@H](C)N1C (stereo partly drawn) [XF078-127, N-(5-(2-(4-(1-((2-(2,6-dioxopiperidin-3-yl)-1,3-dioxoisoindolin-4-yl)amino)-3,6,9,12,15-pentaoxaoctadecan-18-oyl)piperazin-1-yl)pyrimidin-5-yl)-4-fluoro-2-((3S,5R)-3,4,5-trimethylpiperazin-1-yl)phenyl)-4-fluoro-2-(trifluoromethyl)benzamide] | able to effectively degrade WDR5
Cc1ncsc1-c1ccc(CNC(=O)[C@@H]2C[C@@H](O)CN2C(=O)[C@@H](NC(=O)COCC(=O)N2CCN(Cc3cnc(N4CC=C(c5cc(NC(=O)c6c[nH]c(=O)cc6C(F)(F)F)c(N6C[C@@H](C)N(C)[C@@H](C)C6)cc5F)CC4)nc3)CC2)C(C)(C)C)cc1 [XF078-132, N-(4-fluoro-5-(1-(5-((4-(2-(2-(((S)-1-((2S,4R)-4-hydroxy-2-((4-(4-methylthiazol-5-yl)benzyl)carbamoyl)pyrrolidin-1-yl)-3,3-dimethyl-1-oxobutan-2-yl)amino)-2-oxoethoxy)acetyl)piperazin-1-yl)methyl)pyrimidin-2-yl)-1,2,3,6-tetrahydropyridin-4-yl)-2-((3S,5R)-3,4,5-trimethylpiperazin-1-yl)phenyl)-6-oxo-4-(trifluoromethyl)-1,6-dihydropyridine-3-carboxamide] | able to effectively degrade WDR5
Cc1ncsc1-c1ccc(CNC(=O)[C@@H]2C[C@@H](O)CN2C(=O)[C@@H](NC(=O)CCOCCC(=O)N2CCN(Cc3cnc(N4CC=C(c5cc(NC(=O)c6c[nH]c(=O)cc6C(F)(F)F)c(N6C[C@@H](C)N(C)[C@@H](C)C6)cc5F)CC4)nc3)CC2)C(C)(C)C)cc1 [XF078-133, N-(4-fluoro-5-(1-(5-((4-(3-(3-(((S)-1-((2S,4R)-4-hydroxy-2-((4-(4-methylthiazol-5-yl)benzyl)carbamoyl)pyrrolidin-1-yl)-3,3-dimethyl-1-oxobutan-2-yl)amino)-3-oxopropoxy)propanoyl)piperazin-1-yl)methyl)pyrimidin-2-yl)-1,2,3,6-tetrahydropyridin-4-yl)-2-((3S,5R)-3,4,5-trimethylpiperazin-1-yl)phenyl)-6-oxo-4-(trifluoromethyl)-1,6-dihydropyridine-3-carboxamide] | able to effectively degrade WDR5
Cc1ncsc1-c1ccc(CNC(=O)[C@@H]2C[C@@H](O)CN2C(=O)[C@@H](NC(=O)COCCOCC(=O)N2CCN(Cc3cnc(N4CC=C(c5cc(NC(=O)c6c[nH]c(=O)cc6C(F)(F)F)c(N6C[C@@H](C)N(C)[C@@H](C)C6)cc5F)CC4)nc3)CC2)C(C)(C)C)cc1 [XF078-134, N-(4-fluoro-5-(1-(5-((4-(2-(2-(2-(((S)-1-((2S,4R)-4-hydroxy-2-((4-(4-methylthiazol-5-yl)benzyl)carbamoyl)pyrrolidin-1-yl)-3,3-dimethyl-1-oxobutan-2-yl)amino)-2-oxoethoxy)ethoxy)acetyl)piperazin-1-yl)methyl)pyrimidin-2-yl)-1,2,3,6-tetrahydropyridin-4-yl)-2-((3S,5R)-3,4,5-trimethylpiperazin-1-yl)phenyl)-6-oxo-4-(trifluoromethyl)-1,6-dihydropyridine-3-carboxamide] | able to effectively degrade WDR5
